Measured values: patent US4849429A, “Certain 1,4-dihydro-2,6-dilower-alkyl-4-(mono-substituted pyridyl) useful for treating coronary artery or cerebral artery disease” (The Green Cross Corporation, priority 1985, dated 1989)
Read-outs that look alike come from different tables or passages of the source.

Test: Test 2: blood pressure depression up to 24 hours and duration until 50% recovery, oral
Format: in vivo, Male, spontaneously hypertension-developing rats
Conditions: for response vs control in vivo at 25 mg/kg: Rattus norvegicus; for Duration 50% recovery: duration until pressure recovered to 50% from the maximum depression value
Experimental: Male, spontaneously hypertension-developing rats of ages of 10 to 11 weeks (in groups of 3 to 5 animals) were used in the test. For blood pressure determination, systolic pressure was measured without anesthesia by an indirect tail-cuff method using a sphygmomanometer (PE-300, Narco Bio-System).

[1] = 1h after oral administration, percent based on that before administration (100), read-out: Depression value (%) of blood pressure, 1h
[2] = 2h after oral administration, percent based on that before administration (100), read-out: Depression value (%) of blood pressure, 2h
[3] = 4h after oral administration, percent based on that before administration (100), read-out: Depression value (%) of blood pressure, 4h
[4] = 7h after oral administration, percent based on that before administration (100), read-out: Depression value (%) of blood pressure, 7h
[5] = 24h after oral administration, percent based on that before administration (100), read-out: Depression value (%) of blood pressure, 24h
[6] = maximum lowering, percent based on that before administration (100), read-out: Depression value (%) of blood pressure, Max

## COC(=O)C1=C(C)NC(C)=C(C(=O)OCCN(C)Cc2ccccc2)C1c1cccc([N+](=O)[O-])c1 (stereo not drawn) [Nic, 2,6-dimethyl-4-(3-nitrophenyl)-1,4-dihydropyridine-3,5-dicarboxylic acid 3-β-(N-benzyl-N-methylamino)ethyl ester 5-methyl ester, reference compound]
[1]
  response vs control in vivo at 25 mg/kg: 62%
[2]
  response vs control in vivo at 25 mg/kg: 68%
[3]
  response vs control in vivo at 25 mg/kg: 76%
[4]
  response vs control in vivo at 25 mg/kg: 81%
[5]
  response vs control in vivo at 25 mg/kg: 96%
[6]
  response vs control in vivo at 25 mg/kg: 62%
  Duration 50% recovery: 7.0 h

## COC(=O)C1=C(C)NC(C)=C(C(=O)OCCN(C)Cc2ccccc2)C1c1cncc([N+](=O)[O-])c1 (stereo not drawn) [(18), 2,6-Dimethyl-4-(5-nitro-3-pyridyl)-1,4-dihydropyridine-3,5-dicarboxylic ac id 3-β-(N-benzyl-N-methylamino)ethyl ester 5-methyl ester]
[1]
  response vs control in vivo at 25 mg/kg: 90%
[2]
  response vs control in vivo at 25 mg/kg: 86%
[3]
  response vs control in vivo at 25 mg/kg: 95%
[4]
  response vs control in vivo at 25 mg/kg: 96%
[5]
  response vs control in vivo at 25 mg/kg: 96%
[6]
  response vs control in vivo at 25 mg/kg: 86%
  Duration 50% recovery: 3.7 h

## COC(=O)C1=C(C)NC(C)=C(C(=O)OCCN(C)Cc2ccccc2)C1c1ccnc(C#N)c1 (stereo not drawn) [(19), 2,6-Dimethyl-4-(2-cyano-4-pyridyl)-1,4-dihydropyridine-3,5-dicarboxylic ac id 3-β-(N-benzyl-N-methylamino)ethyl ester 5-methyl ester]
[1]
  response vs control in vivo at 25 mg/kg: 75%
[2]
  response vs control in vivo at 25 mg/kg: 94%
[3]
  response vs control in vivo at 25 mg/kg: 100%
[4]
  response vs control in vivo at 25 mg/kg: 98%
[5]
  response vs control in vivo at 25 mg/kg: 99%
[6]
  response vs control in vivo at 25 mg/kg: 75%
  Duration 50% recovery: 1.7 h

## COC(=O)C1=C(C)NC(C)=C(C(=O)OCCN(C)Cc2ccccc2)C1c1ccnc(F)c1 (stereo not drawn) [(16), 2,6-Dimethyl-4-(2-fluoro-4-pyridyl)-1,4-dihydropyridine-3,5-dicarboxylic acid 3-β-(N-benzyl-N-methylamino)ethyl ester 5-methyl ester]
[1]
  response vs control in vivo at 25 mg/kg: 92%
[2]
  response vs control in vivo at 25 mg/kg: 94%
[3]
  response vs control in vivo at 25 mg/kg: 95%
[4]
  response vs control in vivo at 25 mg/kg: 98%
[5]
  response vs control in vivo at 25 mg/kg: 96%
[6]
  response vs control in vivo at 25 mg/kg: 92%
  Duration 50% recovery: 5.5 h

## COC(=O)C1=C(C)NC(C)=C(C(=O)OCCN(C)Cc2ccccc2)C1c1cc(C#N)ccn1 (stereo not drawn) [(3), 2,6-Dimethyl-4-(4-cyano-2-pyridyl)-1,4-dihydropyridyne-3,5-dicarboxylicacid 3-β-(N-benzyl-N-methylamino)ethyl ester 5-methyl ester]
[1]
  response vs control in vivo at 25 mg/kg: 61%
[2]
  response vs control in vivo at 25 mg/kg: 66%
[3]
  response vs control in vivo at 25 mg/kg: 74%
[4]
  response vs control in vivo at 25 mg/kg: 82%
[5]
  response vs control in vivo at 25 mg/kg: 95%
[6]
  response vs control in vivo at 25 mg/kg: 61%
  Duration 50% recovery: 7.0 h

## COC(=O)C1=C(C)NC(C)=C(C(=O)OCCN(C)Cc2ccccc2)C1c1cccnc1Br (stereo not shown) [(11)]
[1]
  response vs control in vivo at 25 mg/kg: 83%
[2]
  response vs control in vivo at 25 mg/kg: 82%
[3]
  response vs control in vivo at 25 mg/kg: 87%
[4]
  response vs control in vivo at 25 mg/kg: 91%
[5]
  response vs control in vivo at 25 mg/kg: 97%
[6]
  response vs control in vivo at 25 mg/kg: 82%
  Duration 50% recovery: 6.7 h

## COC(=O)C1=C(C)NC(C)=C(C(=O)OC)C1c1ccccc1[N+](=O)[O-] [Nif, 2,6-dimethyl-4-(2-nitrophenyl)-1,4-dihydropyridine-3,5-dicarboxylic acid dimethyl ester, reference compound]
po, 1 h, read-out: Depression value (%) of blood pressure, 1h
  response vs control in vivo at 25 mg/kg: 72%
po, 2 h, read-out: Depression value (%) of blood pressure, 2h
  response vs control in vivo at 25 mg/kg: 73%
po, 4 h, read-out: Depression value (%) of blood pressure, 4h
  response vs control in vivo at 25 mg/kg: 77%
po, 7 h, read-out: Depression value (%) of blood pressure, 7h
  response vs control in vivo at 25 mg/kg: 70%
po, 24 h, read-out: Depression value (%) of blood pressure, 24h
  response vs control in vivo at 25 mg/kg: 90%
read-out: Depression value (%) of blood pressure, Max
  response vs control in vivo at 25 mg/kg: 70%
  Duration 50% recovery: 19.4 h

## COC(=O)C1=C(C)NC(C)=C(C(=O)OCCN(C)Cc2ccccc2)C1c1ccc(C#N)nc1 (stereo not drawn) [(15), 2,6-Dimethyl-4-(6-cyano-3-pyridyl)-1,4-dihydropyridine-3,5-dicarboxylic ac id 3-β-(N-benzyl-N-methylamino)ethyl ester 5-methyl ester]
[1]
  response vs control in vivo at 25 mg/kg: 88%
[2]
  response vs control in vivo at 25 mg/kg: 90%
[3]
  response vs control in vivo at 25 mg/kg: 83%
[4]
  response vs control in vivo at 25 mg/kg: 89%
[5]
  response vs control in vivo at 25 mg/kg: 95%
[6]
  response vs control in vivo at 25 mg/kg: 83%
  Duration 50% recovery: 15.1 h

## COC(=O)C1=C(C)NC(C)=C(C(=O)OCCN(C)Cc2ccccc2)C1c1cc(Br)ccn1 (stereo not drawn) [(2), 2,6-Dimethyl-4-(4-bromo-2-pyridyl)-1,4-dihydropyridine-3,5-dicarboxylicacid 3-β-(N-benzyl-N-methylamino)ethyl ester 5-methyl ester]
[1]
  response vs control in vivo at 25 mg/kg: 70%
[2]
  response vs control in vivo at 25 mg/kg: 76%
[3]
  response vs control in vivo at 25 mg/kg: 75%
[4]
  response vs control in vivo at 25 mg/kg: 92%
[5]
  response vs control in vivo at 25 mg/kg: 102%
[6]
  response vs control in vivo at 25 mg/kg: 70%
  Duration 50% recovery: 5.8 h

## COC(=O)C1=C(C)NC(C)=C(C(=O)OCCN(C)Cc2ccccc2)C1c1cccc(Cl)n1 (stereo not drawn) [(7), 2,6-Dimethyl-4-(6-chloro-2-pyridyl)-1,4-dihydropyridine-3,5-dicarboxylic a cid 3-β-(N-benzyl-N-methylamino)ethyl ester 5-methyl ester]
[1]
  response vs control in vivo at 25 mg/kg: 83%
[2]
  response vs control in vivo at 25 mg/kg: 84%
[3]
  response vs control in vivo at 25 mg/kg: 87%
[4]
  response vs control in vivo at 25 mg/kg: 93%
[5]
  response vs control in vivo at 25 mg/kg: 101%
[6]
  response vs control in vivo at 25 mg/kg: 83%
  Duration 50% recovery: 6.0 h

## COC(=O)C1=C(C)NC(C)=C(C(=O)OCCN(C)Cc2ccccc2)C1c1cncc(C(F)(F)F)c1 (stereo not drawn) [(17), 2,6-Dimethyl-4-(5-trifluoromethyl-3-pyridyl)-1,4-dihydropyridine-3,5-dicarboxylic acid 3-β-(N-benzyl-N-methylamino)ethyl ester 5-methyl ester]
[1]
  response vs control in vivo at 25 mg/kg: 91%
[2]
  response vs control in vivo at 25 mg/kg: 92%
[3]
  response vs control in vivo at 25 mg/kg: 95%
[4]
  response vs control in vivo at 25 mg/kg: 98%
[5]
  response vs control in vivo at 25 mg/kg: 105%
[6]
  response vs control in vivo at 25 mg/kg: 91%
  Duration 50% recovery: 4.2 h

## COC(=O)C1=C(C)NC(C)=C(C(=O)OCCN(C)Cc2ccccc2)C1c1cccc(C(F)(F)F)n1 (stereo not drawn) [(9), 2,6-Dimethyl-4-(6-trifluoromethyl-2-pyridyl)-1,4-dihydropyridine-3,5-dicarboxylic acid 3-β-(N-benzyl-N-methylamino)ethyl ester 5-methyl ester]
[1]
  response vs control in vivo at 25 mg/kg: 85%
[2]
  response vs control in vivo at 25 mg/kg: 92%
[3]
  response vs control in vivo at 25 mg/kg: 91%
[4]
  response vs control in vivo at 25 mg/kg: 104%
[5]
  response vs control in vivo at 25 mg/kg: 119%
[6]
  response vs control in vivo at 25 mg/kg: 85%
  Duration 50% recovery: 4.6 h

## COC(=O)C1=C(C)NC(C)=C(C(=O)OCCN(C)Cc2ccccc2)C1c1cncc(Br)c1 (stereo not drawn) [(14), 2,6-Dimethyl-4-(5-bromo-3-pyridyl)-1,4-dihydropyridine-3,5-dicarboxylic ac id 3-β-(N-benzyl-N-methylamino)ethyl ester 5-methyl ester]
[1]
  response vs control in vivo at 25 mg/kg: 83%
[2]
  response vs control in vivo at 25 mg/kg: 91%
[3]
  response vs control in vivo at 25 mg/kg: 90%
[4]
  response vs control in vivo at 25 mg/kg: 90%
[5]
  response vs control in vivo at 25 mg/kg: 101%
[6]
  response vs control in vivo at 25 mg/kg: 83%
  Duration 50% recovery: 9.3 h

## COC(=O)C1=C(C)NC(C)=C(C(=O)OCCN(C)Cc2ccccc2)C1c1ncccc1[N+](=O)[O-] (stereo not drawn) [(1), 2,6-Dimethyl-4-(3-nitro-2-pyridyl)-1,4-dihydropyridine-3,5-dicarboxylicacid 3-β-(N-benzyl-N-methylamino)ethyl ester 5-methyl ester]
[1]
  response vs control in vivo at 25 mg/kg: 65%
[2]
  response vs control in vivo at 25 mg/kg: 68%
[3]
  response vs control in vivo at 25 mg/kg: 76%
[4]
  response vs control in vivo at 25 mg/kg: 81%
[5]
  response vs control in vivo at 25 mg/kg: 96%
[6]
  response vs control in vivo at 25 mg/kg: 65%
  Duration 50% recovery: 8.7 h

## COC(=O)C1=C(C)NC(C)=C(C(=O)OCCN(C)Cc2ccccc2)C1c1cccc([N+](=O)[O-])n1 (stereo not drawn) [(10), 2,6-Dimethyl-4-(6-nitro-2-pyridyl)-1,4-dihydropyridine-3,5-dicarboxylic ac id 3-β-(N-benzyl-N-methylamino)ethyl ester 5-methyl ester]
[1]
  response vs control in vivo at 25 mg/kg: 99%
[2]
  response vs control in vivo at 25 mg/kg: 95%
[3]
  response vs control in vivo at 25 mg/kg: 107%
[4]
  response vs control in vivo at 25 mg/kg: 110%
[5]
  response vs control in vivo at 25 mg/kg: 120%
[6]
  response vs control in vivo at 25 mg/kg: 95%
  Duration 50% recovery: 2.4 h

## COC(=O)C1=C(C)NC(C)=C(C(=O)OCCN(C)Cc2ccccc2)C1c1cccnc1C(F)(F)F (stereo not drawn) [(13), 2,6-Dimethyl-4-(2-trifluoromethyl-3-pyridyl)-1,4-dihydropyridine-3,5-dicarboxylic acid 3-β-(benzyl-N-methylamino)ethyl ester 5-methyl ester]
[1]
  response vs control in vivo at 25 mg/kg: 73%
[2]
  response vs control in vivo at 25 mg/kg: 67%
[3]
  response vs control in vivo at 25 mg/kg: 67%
[4]
  response vs control in vivo at 25 mg/kg: 71%
[5]
  response vs control in vivo at 25 mg/kg: 94%
[6]
  response vs control in vivo at 25 mg/kg: 67%
  Duration 50% recovery: 16.2 h
